Assay results from patent publication US11470846B2, “Herbicidal pyridino-/pyrimidino-thiazoles” (SYNGENTA PARTICIPATIONS AG, priority 2014, dated 2022).

Legend:
Assay type in all cases: in vivo
[1] = test system: Alopecurus myosuroides (ALOMY); assay: Pre-emergence herbicidal activity; details: pre-emergence application, 1000 g/Ha, evaluated after 13 days, scale 0-5
Method: (§1) B1 Pre-Emergence Herbicidal Activity
(§2) Seeds of a variety of test species were sown in standard soil in pots: Triticum aestivium (TRZAW), Oryza sativa (ORYSA), Avena fatua (AVEFA), Alopecurus myosuroides (ALOMY), Echinochloa crus-galli (ECHCG), Lolium perenne (LOLPE), Zea Mays (ZEAMX), Abutilon theophrasti (ABUTH), Amaranthus retroflexus (AMARE) and Setaria faberi (SETFA). After cultivation for one day (pre-emergence) under controlled conditions in a glasshouse (at 24/16° C., day/night; 14 hours light; 65% humidity), the plants were sprayed with an aqueous spray solution derived from the formulation of the technical active ingredient in acetone/water (50:50) solution containing 0.5% Tween 20 (polyoxyethelyene sorbitan monolaurate, CAS RN 9005-64-5). The test plants were then grown in a glasshouse under controlled conditions (at 24/16° C., day/night; 14 hours light; 65% humidity) and watered twice daily. After 13 days, the test was evaluated (5=total damage to plant; 0=no damage to plant).

Avena fatua (AVEFA) [2] = assay: Pre-emergence herbicidal activity; details: pre-emergence application, 1000 g/Ha, evaluated after 13 days, scale 0-5
Method: as §1, §2

[3] = test system: Echinochloa crus-galli (ECHCG); assay: Pre-emergence herbicidal activity; details: pre-emergence application, 1000 g/Ha, evaluated after 13 days, scale 0-5; Table 5
Method: as §1, §2

Lolium perenne (LOLPE) [4] = assay: Pre-emergence herbicidal activity; details: pre-emergence application, 1000 g/Ha, evaluated after 13 days, scale 0-5; Table 5
Method: as §1, §2

Oryza sativa (ORYSA) [5] = assay: Pre-emergence herbicidal activity; details: pre-emergence application, 1000 g/Ha, evaluated after 13 days, scale 0-5
Method: as §1, §2

[6] = test system: Triticum aestivium (TRZAW); assay: Pre-emergence herbicidal activity; details: pre-emergence application, 1000 g/Ha, evaluated after 13 days, scale 0-5
Method: as §1, §2

[7] = test system: Alopecurus myosuroides (ALOMY); assay: Post-emergence herbicidal activity; details: post-emergence application, 1000 g/Ha, evaluated after 13 days, scale 0-5
Method: (§3) B2 Post-Emergence Herbicidal Activity
(§4) Seeds of a variety of test species were sown in standard soil in pots: Triticum aestivium (TRZAW), Oryza sativa (ORYSA), Avena fatua (AVEFA), Alopecurus myosuroides (ALOMY), Echinochloa crus-galli (ECHCG), Lolium perenne (LOLPE), Zea Mays (ZEAMX), Abutilon theophrasti (ABUTH), Amaranthus retroflexus (AMARE) and Setaria faberi (SETFA). After 8 days cultivation (post-emergence) under controlled conditions in a glasshouse (at 24/16° C., day/night; 14 hours light; 65% humidity), the plants were sprayed with an aqueous spray solution derived from the formulation of the technical active ingredient in acetone/water (50:50) solution containing 0.5% Tween 20 (polyoxyethelyene sorbitan monolaurate, CAS RN 9005-64-5). The test plants were then grown in a glasshouse under controlled conditions (at 24/16° C., day/night; 14 hours light; 65% humidity) and watered twice daily. After 13 days, the test was evaluated (5=total damage to plant; 0=no damage to plant).

Avena fatua (AVEFA) [8] = assay: Post-emergence herbicidal activity; details: post-emergence application, 1000 g/Ha, evaluated after 13 days, scale 0-5
Method: as §3, §4

[9] = test system: Echinochloa crus-galli (ECHCG); assay: Post-emergence herbicidal activity; details: post-emergence application, 1000 g/Ha, evaluated after 13 days, scale 0-5; Table 7
Method: as §3, §4

Lolium perenne (LOLPE) [10] = assay: Post-emergence herbicidal activity; details: post-emergence application, 1000 g/Ha, evaluated after 13 days, scale 0-5; Table 7
Method: as §3, §4

Oryza sativa (ORYSA) [11] = assay: Post-emergence herbicidal activity; details: post-emergence application, 1000 g/Ha, evaluated after 13 days, scale 0-5
Method: as §3, §4

[12] = test system: Triticum aestivium (TRZAW); assay: Post-emergence herbicidal activity; details: post-emergence application, 1000 g/Ha, evaluated after 13 days, scale 0-5
Method: as §3, §4

| Compound | Control of weed species, ALOMY (damage score) [1] | Control of weed species, AVEFA (damage score) (Avena fatua (AVEFA) [2]) | Control of weed species, ECHCG (damage score) [3] | Control of weed species, LOLPE (damage score) (Lolium perenne (LOLPE) [4]) | Control of weed species, ORYSA (damage score) (Oryza sativa (ORYSA) [5]) | Control of weed species, TRZAW (damage score) [6] | Control of weed species, ALOMY (damage score) [7] | Control of weed species, AVEFA (damage score) (Avena fatua (AVEFA) [8]) | Control of weed species, ECHCG (damage score) [9] | Control of weed species, LOLPE (damage score) (Lolium perenne (LOLPE) [10]) | Control of weed species, ORYSA (damage score) (Oryza sativa (ORYSA) [11]) | Control of weed species, TRZAW (damage score) [12] |
| --- | --- | --- | --- | --- | --- | --- | --- | --- | --- | --- | --- | --- |
| CCN(C(=O)OC(C)(C)C)c1sc(-c2cccnc2)nc1C [Compound A17] | 0 | 0 | 0 | 0 | 0 | 0 | 1 | 4 | 1 | 2 | 2 | 1 |
| COC(=O)N(C)c1sc(-c2cccnc2)nc1C [Compound A18] | 1 | 2 | 5 | 2 | 0 | 1 | 1 | 3 | 5 | 2 | 0 | 1 |
| CCOC(=O)N(C)c1sc(-c2cccnc2)nc1C [Compound A19, ethyl N-methyl-N-[4-methyl-2-(3-pyridyl)thiazol-5-yl]carbamate] | 1 | 1 | 5 | 1 | 0 | 0 | 1 | 3 | 5 | 2 | 0 | 1 |
| Cc1nc(-c2cccnc2)sc1N(C)C(=O)OC(C)C [Compound A20] | 0 | 2 | 5 | 2 | 0 | 0 | 1 | 3 | 5 | 3 | 0 | 1 |
| Cc1nc(-c2cccnc2)sc1N(C)C(=O)NC(C)(C)C [Compound A21, 3-tert-butyl-1-methyl-1-[4-methyl-2-(3-pyridyl)thiazol-5-yl]urea] | 0 | 2 | 5 | 1 | 0 | 0 | 2 | 4 | 5 | 3 | 0 | 1 |
| Cc1nc(-c2cccnc2)sc1N(C)C(=O)SC(C)(C)C [Compound A22, S-tert-butyl N-methyl-N-[4-methyl-2-(3-pyridyl)thiazol-5-yl]carbamothioate] | 0 | 0 | 0 | 0 | 0 | 0 | 0 | 2 | 2 | 2 | 0 | 0 |
